Measurements reported in patent US12479827B2, “Heteroaromatic carboxamide derivatives as plasma kallikrein inhibitors” (Boehringer Ingelheim International GmbH, priority 2020, dated 2025).

Columns and labels:
Format in all cases: biochemical
[1] = molecular target: T1, PKK in kaolin activated human platelet poor plasma (Homo sapiens, UniProt P03952); test: Inhibition of PKK in kaolin activated human PPP; conditions: 25-750 μg/mL kaolin, global fit, text b200 calls the values IC90;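 further: readout is the rate of fluorogenic substrate cleavage in rfu per min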
T1 construct: Platelet poor plasma (PPP) obtained from human wholeblood; from tissue
Protocol: Platelet poor plasma (PPP) obtained from human wholeblood, anticoagulated with Na-Citrate, is incubated with various concentrations of the test compound together with either 25, 75, 250, or 750 μg/mL kaolin in assay buffer for 20 min at 37° C. such that for each kaolin dose used a concentration response is obtained for the test compound.

Human PKK = molecular target: T2, Human PKK (Homo sapiens, UniProt P03952); test: Inhibition of PKK using an endpoint assay (human PKK); conditions: fluorogenic substrate H-Pro-Phe-Arg-AMC, 1 h room temperature, method names human or rat PKK, table does not say which
T2 construct: purchased Enzyme Research Laboratories
How it was run: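 Endpoint fluorescence (ex 355 nm, em 460 nm) after stopping with 1 μM final PPACK II. Buffer: Tris 100 mM pH 7.8, NaCl 150 mM, BSA 0.1%, Tween20 0.05%, with 1% DMSO present; enzyme is human plasma kallikrein.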

human TK1 = molecular target: T3, human TK1 (Homo sapiens, UniProt P06870); test: Inhibition of TK1 (Ki); conditions: activated human TK1, substrate H-Pro-Phe-Arg-AMC, 24° C.
T3 construct: purchased R&D Systems
Protocol: The ability of compounds of formula (I) to inhibit plasma kallikrein (PKK), Factor XIIa (FXIIa), Factor XIa (FXIa), Factor Xa (FXa), Factor IIa (alpha-thrombin; FIIa), plasmin, trypsin, tissue kallikrein 1 (TK1), Factor VIIa (FVIIa), or FVIIa complexed with Tissue Factor, phospholipids and CaCl2 (FVIIa/TF/PL/CaCl2) is determined using the following biochemical assays in assay buffer (100 mM Tris, 150 mM NaCL, adjusted to a pH of 7.8 with HCl, and containing 0.1% (w/v) BSA and 0.05% (v/v) Tween20) in the presence of 1% (v/v) DMSO:
Prior to the assay, human TK1 (R&D Systems) is activated by incubation with human trypsin (Calbiochem) in a 1:10,000 ratio for 15 min at 37° C. For assaying TK1 inhibitory activity, activated TK1 (31.25 nM or 1 U/mL) is incubated at 24° C. with 0.1 mM fluorogenic substrate H-Pro-Phe-Arg-AMC (11295 from Bachem) and various concentrations of the test compound in assay buffer. Measurements are performed in a kinetic interval every 2nd minute for 16 min using a Spectramax M5 (Molecular Devices) with the following settings of the wavelength excitation of 350 nm and wavelength emission of 450 nm.
The pIC50 values are then fitted using a four-parametric fitting procedure using GraphPad Prism (version 6; GraphPad Software, Inc.). Respective Ki values are obtained by correction of the IC50 values for the respective KM value of the used substrate (see Table A for the obtained KM values of the used substrates) using the following formula:
[formula] Where the IC50 is in molar and the KM value in mM.

T1 sequence (P03952 391-638 limits assumed): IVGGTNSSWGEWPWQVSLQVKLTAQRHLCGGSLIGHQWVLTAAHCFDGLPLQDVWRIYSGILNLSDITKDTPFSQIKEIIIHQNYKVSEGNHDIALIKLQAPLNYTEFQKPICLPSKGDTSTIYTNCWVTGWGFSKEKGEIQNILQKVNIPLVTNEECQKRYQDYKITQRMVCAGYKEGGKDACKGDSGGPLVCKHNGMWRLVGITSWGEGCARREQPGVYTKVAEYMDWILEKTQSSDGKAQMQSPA
T1 sequence (P03952 20-390 limits assumed): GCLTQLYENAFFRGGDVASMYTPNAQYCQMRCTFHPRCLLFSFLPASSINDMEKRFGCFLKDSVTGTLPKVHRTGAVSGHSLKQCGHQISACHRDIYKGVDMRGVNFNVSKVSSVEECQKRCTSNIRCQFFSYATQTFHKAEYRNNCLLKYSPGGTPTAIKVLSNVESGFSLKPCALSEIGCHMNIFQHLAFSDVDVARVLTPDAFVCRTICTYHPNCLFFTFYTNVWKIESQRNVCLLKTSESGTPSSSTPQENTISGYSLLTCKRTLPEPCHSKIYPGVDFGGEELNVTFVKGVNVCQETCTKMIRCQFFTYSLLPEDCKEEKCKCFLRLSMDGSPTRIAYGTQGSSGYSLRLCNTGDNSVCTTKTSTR
T2 sequence (P03952 20-390 limits assumed): as above
T2 sequence (P03952 391-638 limits assumed): as the sequence (P03952 391-638 limits assumed) above
T3 sequence (P06870 25-262): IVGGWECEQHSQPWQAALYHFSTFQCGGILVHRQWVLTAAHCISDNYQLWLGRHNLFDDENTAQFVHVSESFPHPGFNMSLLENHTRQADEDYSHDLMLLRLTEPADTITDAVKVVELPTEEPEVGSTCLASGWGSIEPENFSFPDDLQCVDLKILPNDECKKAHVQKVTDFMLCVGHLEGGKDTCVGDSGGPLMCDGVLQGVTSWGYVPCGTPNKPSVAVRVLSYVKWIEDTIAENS

Row | SMILES | IC50 [1] [nM] | IC50 (Human PKK) [nM] | Ki (human TK1) [nM]
1 | Cn1cnc2c1CC[C@H]2NC(=O)c1cnn(Cc2ccc(N3CC4C(C3)C4(F)F)nc2)c1 (stereo partly drawn) [Example 80, 1-[(6-{6,6-Difluoro-3-azabicyclo[3.1.0]hexan-3-yl}pyridin-3-yl)methyl]-N-[(4R)-1-methyl-1H,4H,5H,6H-cyclopenta[d]imidazol-4-yl]-1H-pyrazole-4-carboxamide] | 495 | 4.7 | > 10000
2 | Cc1nc(N2CC3C(C2)C3(F)F)ccc1Cn1cc(C(=O)N[C@@H]2CCc3c2ncn3C)cn1 (stereo partly drawn) [Example 90, 1-[(6-{6,6-Difluoro-3-azabicyclo[3.1.0]hexan-3-yl}-2-methylpyridin-3-yl)methyl]-N-[(4R)-1-methyl-1H,4H,5H,6H-cyclopenta[d]imidazol-4-yl]-1H-pyrazole-4-carboxamide] | 126 | 0.7 | > 10000
3 | Cc1nc(N2CC3C(C2)C3(F)F)ccc1Cn1cc(C(=O)N[C@@H]2CCc3c2ncn3C)c(CO)n1 (stereo partly drawn) [Example 107, 1-[(6-{6,6-Difluoro-3-azabicyclo[3.1.0]hexan-3-yl}-2-methylpyridin-3-yl)methyl]-3-(hydroxymethyl)-N-[(4R)-1-methyl-1H,4H,5H,6H-cyclopenta[d]imidazol-4-yl]-1H-pyrazole-4-carboxamide] | 324 | 1 | > 10000
4 | Cn1cnc2c1CC[C@H]2NC(=O)c1cnn(Cc2cnc(N3CC4CC4C3)c(C#N)c2)c1 (stereo partly drawn) [Example 114, 1-[(6-{3-Azabicyclo[3.1.0]hexan-3-yl}-5-cyanopyridin-3-yl)methyl]-N-[(4R)-1-methyl-1H,4H,5H,6H-cyclopenta[d]imidazol-4-yl]-1H-pyrazole-4-carboxamide] | 14700 | 1.8 | > 10000
5 | Cn1cnc2c1CC[C@H]2NC(=O)c1cnn(Cc2cnc(N3CC4CC4C3)cc2C(F)(F)F)c1 (stereo partly drawn) [Example 115, 1-[(6-{3-Azabicyclo[3.1.0]hexan-3-yl}-4-(trifluoromethyl)pyridin-3-yl)methyl]-N-[(4R)-1-methyl-1H,4H,5H,6H-cyclopenta[d]imidazol-4-yl]-1H-pyrazole-4-carboxamide] | 2660 | 4.1 | > 10000
6 | Cc1c(Cn2cc(C(=O)N[C@@H]3CCc4c3ncn4C)cn2)cnc(N2CC3CC3C2)c1C#N (stereo partly drawn) [Example 116, 1-[(6-{3-Azabicyclo[3.1.0]hexan-3-yl}-5-cyano-4-methylpyridin-3-yl)methyl]-N-[(4R)-1-methyl-1H,4H,5H,6H-cyclopenta[d]imidazol-4-yl]-1H-pyrazole-4-carboxamide] | 278 | 0.4 | 871
7 | COCc1nn(Cc2ccc(N3CC4CC4C3)nc2C)cc1C(=O)N[C@@H]1CCc2c1ncn2C (stereo partly drawn) [Example 123, 1-[(6-{3-Azabicyclo[3.1.0]hexan-3-yl}-2-methylpyridin-3-yl)methyl]-3-(methoxymethyl)-N-[(4R)-1-methyl-1H,4H,5H,6H-cyclopenta-[d]imidazol-4-yl]-1H-pyrazole-4-carboxamide] | 1320 | 0.9 | > 10000

Now from value to compound:

Row | IC50 [1] [nM] | IC50 (Human PKK) [nM] | Ki (human TK1) [nM] | SMILES
8 | 597 | 1.2 | > 10000 | Cn1cnc2c1CC[C@H]2NC(=O)c1cnn(Cc2ccc(N3CC4CC4C3)nc2CO)c1 (stereo partly drawn) [Example 86, 1-[(6-{3-Azabicyclo[3.1.0]hexan-3-yl}-2-(hydroxymethyl)-pyridin-3-yl)methyl]-N-[(4R)-1-methyl-1H,4H,5H,6H-cyclopenta[d]imidazol-4-yl]-1H-pyrazole-4-carboxamide]
9 | 465 | 1.7 | > 10000 | Cn1cnc2c1CC[C@H]2NC(=O)c1cn(Cc2ccc(N3CC4CC4C3)nc2F)cn1 (stereo partly drawn) [Example 108, 1-[(6-{3-Azabicyclo[3.1.0]hexan-3-yl}-2-fluoropyridin-3-yl)methyl]-N-[(4R)-1-methyl-1H,4H,5H,6H-cyclopenta[d]imidazol-4-yl]-1H-imidazole-4-carboxamide]
10 | 784 | 0.9 | > 10000 | CCCc1nc(N2CC3CC3C2)ccc1Cn1cnc(C(=O)N[C@@H]2CCc3c2ncn3C)c1 (stereo partly drawn) [Example 110, 1-[(6-{3-Azabicyclo[3.1.0]hexan-3-yl}-2-propylpyridin-3-yl)methyl]-N-[(4R)-1-methyl-1H,4H,5H,6H-cyclopenta[d]imidazol-4-yl]-1H-imidazole-4-carboxamide]
11 | 1540 | 2.2 | > 10000 | Cn1cnc2c1CC[C@H]2NC(=O)c1cnn(Cc2ccc(N3CC4CC4C3)nc2C2CC2)c1 (stereo partly drawn) [Example 117, 1-[(6-{3-Azabicyclo[3.1.0]hexan-3-yl}-2-cyclopropylpyridin-3-yl)methyl]-N-[(4R)-1-methyl-1H,4H,5H,6H-cyclopenta[d]imidazol-4-yl]-1H-pyrazole-4-carboxamide]
12 | 157 | 0.3 | > 10000 | Cc1c(Cn2cnc(C(=O)N[C@@H]3CCc4c3ncn4C)c2)cnc(N2CC3CC3C2)c1C#N (stereo partly drawn) [Example 118, 1-[(6-{3-Azabicyclo[3.1.0]hexan-3-yl}-5-cyano-4-methylpyridin-3-yl)methyl]-N-[(4R)-1-methyl-1H,4H,5H,6H-cyclopenta[d]imidazol-4-yl]-1H-imidazole-4-carboxamide]
13 | 1460 | 1.2 | 1060 | Cc1nc(N2CC3CC3C2)ccc1Cn1cc(C(=O)N[C@@H]2CCc3c2ncn3C)c(C(F)(F)F)n1 (stereo partly drawn) [Example 119, 1-[(6-{3-Azabicyclo[3.1.0]hexan-3-yl}-2-methylpyridin-3-yl)methyl]-N-[(4R)-1-methyl-1H,4H,5H,6H-cyclopenta[d]imidazol-4-yl]-3-(trifluoromethyl)-1H-pyrazole-4-carboxamide]
14 | 934 | 2.4 | > 10000 | Cn1cnc2c1CC[C@H]2NC(=O)c1cn(Cc2cnc(N3CC4CC4C3)cc2Cl)cn1 (stereo partly drawn) [Example 120, 1-[(6-{3-Azabicyclo[3.1.0]hexan-3-yl}-4-chloropyridin-3-yl)methyl]-N-[(4R)-1-methyl-1H,4H,5H,6H-cyclopenta[d]imidazol-4-yl]-1H-imidazole-4-carboxamide]
15 | 514 | 1.6 | > 10000 | Cn1cnc2c1CC[C@H]2NC(=O)c1cn(Cc2cnc(N3CC4CC4C3)cc2C(F)(F)F)cn1 (stereo partly drawn) [Example 121, 1-[(6-{3-Azabicyclo[3.1.0]hexan-3-yl}-4-(trifluoromethyl)pyridin-3-yl)methyl]-N-[(4R)-1-methyl-1H,4H,5H,6H-cyclopenta[d]imidazol-4-yl]-1H-imidazole-4-carboxamide]
16 | 492 | 1.5 | > 10000 | Cn1cnc2c1CC[C@H]2NC(=O)c1cn(Cc2ccc(N3CC4CC4C3)nc2Cl)cn1 (stereo partly drawn) [Example 122, 1-[(6-{3-Azabicyclo[3.1.0]hexan-3-yl}-2-chloropyridin-3-yl)methyl]-N-[(4R)-1-methyl-1H,4H,5H,6H-cyclopenta[d]imidazol-4-yl]-1H-imidazole-4-carboxamide]
17 | 823 | 2.4 | > 10000 | Cc1nc(N2CC3CC3C2)c(C#N)cc1Cn1cnc(C(=O)N[C@@H]2CCc3c2ncn3C)c1 (stereo partly drawn) [Example 124, 1-[(6-{3-Azabicyclo[3.1.0]hexan-3-yl}-5-cyano-2-methylpyridin-3-yl)methyl]-N-[(4R)-1-methyl-1H,4H,5H,6H-cyclopenta[d]imidazol-4-yl]-1H-imidazole-4-carboxamide]
